Data taken from US11566007B2, “Ras inhibitors” (Revolution Medicines, Inc., priority 2019, dated 2023).

The compounds below were run against NRAS G12C (Homo sapiens (Human), UniProt P01111+P62937, G12C) (assay: Ras-Raf (BRAF RBD) disruption / FRET / MOA assay, NRAS G12C). Details: IC50* NRAS G12C FRET data.
Assay type: biochemical
Outline: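 Ternary complex formation (Ras–compound–cyclophilin A) displacing BRAF RBD, monitored by TR-FRET. Three hours at 25° C with compound (top 30 μM final), then 1.5 h with the labelled antibodies. Lower ratio than DMSO indicates disruption; IC50 reported.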

NRAS G12C, sequence (P01111 whole entry G12C): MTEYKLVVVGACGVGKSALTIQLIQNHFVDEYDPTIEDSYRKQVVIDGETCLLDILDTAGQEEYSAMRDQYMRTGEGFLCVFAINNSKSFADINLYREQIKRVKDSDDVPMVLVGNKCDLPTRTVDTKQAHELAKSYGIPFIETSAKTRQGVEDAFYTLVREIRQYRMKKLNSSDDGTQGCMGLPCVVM
NRAS G12C, sequence (P62937 whole entry): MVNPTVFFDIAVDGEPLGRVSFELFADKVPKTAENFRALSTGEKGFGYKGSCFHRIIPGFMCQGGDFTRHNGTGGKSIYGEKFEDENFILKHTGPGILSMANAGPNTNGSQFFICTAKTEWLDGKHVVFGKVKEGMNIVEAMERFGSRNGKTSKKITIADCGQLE

| SMILES | IC50 |
| --- | --- |
| CCn1c(-c2cccnc2[C@H](C)OC)c2c3cc(ccc31)-c1cccc(c1)C[C@H](NC(=O)[C@H](C(C)C)N1CC[C@@]3(CCN(C(=O)C#C[C@@H]4COCCN4C)C3)C1=O)C(=O)N1CCC[C@H](N1)C(=O)OCC(C)(C)C2 (atropisomer, axis not shown) [Example A549] | 10 to 100 nM |

Same assay, conditions: read-out: IC50* NRAS G12C FRET data

| SMILES | IC50 |
| --- | --- |
| C=CC(=O)N1CC[C@H](C(=O)N(C)[C@H](C(=O)N[C@H]2CC3=NC=C(O3)c3ccc4c(c3)c(c(-c3cccnc3[C@H](C)OC)n4CC)CC(C)(C)COC(=O)[C@@H]3CCCN(N3)C2=O)C(C)C)C1 (atropisomer, axis not shown) [Example A278] | 100 to 1000 nM |
| CCn1c(-c2cccnc2[C@H](C)OC)c2c3cc(ccc31)-c1cccc(c1)C[C@H](NC(=O)[C@H](C(C)C)N(C)C(=O)[C@H]1CCN(C(=O)C#CC(C)(C)N(C)C)C1)C(=O)N1CCC[C@H](N1)C(=O)OCC(C)(C)C2 (atropisomer, axis not shown) [Example A290] | < 10 nM |
| C=CS(=O)(=O)N1CCC2(CCN([C@H](C(=O)N[C@H]3Cc4cc(O)cc(c4)-c4ccc5c(c4)c(c(-c4cccnc4[C@H](C)OC)n5CC)CC(C)(C)COC(=O)[C@@H]4CCCN(N4)C3=O)C(C)C)C2=O)CC1 (atropisomer, axis not shown) [Example A299] | < 10 nM |
| CO[C@@H](C)c1ncccc1-c1c2c3cc(ccc3n1CC(F)(F)F)-c1csc(n1)C[C@H](NC(=O)[C@@H](COC1CN(C(=O)C#CC(C)(C)N(C)C)C1)C(C)C)C(=O)N1CCC[C@H](N1)C(=O)OCC(C)(C)C2 (atropisomer, axis not shown) [Example A343] | < 10 nM |
| C=CC(=O)N1CC[C@H](C(=O)N(C)[C@H](C(=O)N[C@H]2Cc3cc(cc(C(F)F)c3)-c3ccc4c(c3)c(c(-c3cc(N5CCN(C)CC5)cnc3[C@H](C)OC)n4CC(F)(F)F)CC(C)(C)COC(=O)[C@@H]3CCCN(N3)C2=O)C(C)C)C1 (atropisomer, axis not shown) [Example A357] | 100 to 1000 nM |
| CO[C@@H](C)c1ncccc1-c1c2c3cc(ccc3n1CC(F)(F)F)-c1cccc(c1)C[C@H](NC(=O)[C@@H](COC1CN(C(=O)C#CC(C)(C)N(C)C)C1)C(C)C)C(=O)N1CCC[C@H](N1)C(=O)OCC(C)(C)C2 (atropisomer, axis not shown) [Example A376] | < 10 nM |
| C=CC(=O)N1C[C@H](C)N(C(=O)N(C)[C@H](C(=O)N[C@H]2Cc3nc(cs3)-c3ccc4c(c3)c(c(-c3cccnc3[C@H](C)OC)n4CC)CC(C)(C)COC(=O)[C@@H]3CCCN(N3)C2=O)C(C)C)C[C@@H]1C (atropisomer, axis not shown) [Example A385] | 10 to 100 nM |
| C=CC(=O)N1CCC12CN(C(=O)N(C)[C@H](C(=O)N[C@H]1Cc3nc(cs3)-c3ccc4c(c3)c(c(-c3cccnc3[C@H](C)OC)n4CC)CC(C)(C)COC(=O)[C@@H]3CCCN(N3)C1=O)C(C)C)C2 (atropisomer, axis not shown) [Example A393] | 100 to 1000 nM |
| CCn1c(-c2cccnc2[C@H](C)OC)c2c3cc(ccc31)-c1cc(F)cc(c1)C[C@H](NC(=O)[C@@H](COC1CN(C(=O)C#CC(C)(C)N(C)C)C1)C(C)C)C(=O)N1CCC[C@H](N1)C(=O)OCC(C)(C)C2 (atropisomer, axis not shown) [Example A403] | 10 to 100 nM |
| C=CC(=O)N1CC2(CCN2C(=O)N(C)[C@H](C(=O)N[C@H]2Cc3nc(cs3)-c3ccc4c(c3)c(c(-c3cccnc3[C@H](C)OC)n4CC)CC(C)(C)COC(=O)[C@@H]3CCCN(N3)C2=O)C(C)C)C1 (atropisomer, axis not shown) [Example A407] | < 10 nM |
| C=CC(=O)N1CC[C@H](C(=O)N(C)[C@H](C(=O)N[C@H]2CC3=NN=C(O3)c3ccc4c(c3)c(c(-c3cccnc3[C@H](C)OC)n4CC)CC(C)(C)COC(=O)[C@@H]3CCCN(N3)C2=O)C(C)C)C1 (atropisomer, axis not shown) [Example A447] | 100 to 1000 nM |
| C=CC(=O)Nc1ncc(C(=O)N(C)[C@H](C(=O)N[C@H]2Cc3cccc(c3)-c3ccc4c(c3)c(c(-c3cccnc3[C@H](C)OC)n4CC)CC(C)(C)COC(=O)[C@@H]3CCCN(N3)C2=O)C(C)C)n1C (atropisomer, axis not shown) [Example A474] | < 10 nM |
| C=CC(=O)N1CC[C@H](C(=O)N2CC[C@H](C)[C@H]2C(=O)N[C@H]2Cc3cccc(c3)-c3ccc4c(c3)c(c(-c3cccnc3[C@H](C)OC)n4CC)CC(C)(C)COC(=O)[C@@H]3CCCN(N3)C2=O)C1 (atropisomer, axis not shown) [Example A494] | 100 to 1000 nM |
| C=CC(=O)N1CC[C@H](C(=O)N2CCCCC[C@H]2C(=O)N[C@H]2Cc3cccc(c3)-c3ccc4c(c3)c(c(-c3cccnc3[C@H](C)OC)n4CC)CC(C)(C)COC(=O)[C@@H]3CCCN(N3)C2=O)C1 (atropisomer, axis not shown) [Example A496] | 1000 to 10000 nM |
| CCn1c(-c2cccnc2[C@H](C)OC)c2c3cc(ccc31)-c1cccc(c1)C[C@H](NC(=O)[C@H](C(C)C)N1CC[C@]3(CCN(C(=O)C#CC(C)(C)N(C)C)C3)C1=O)C(=O)N1CCC[C@H](N1)C(=O)OCC(C)(C)C2 (atropisomer, axis not shown) [Example A534, (2S)-2-((S)-7-(4-(dimethylamino)-4-methylpent-2-ynoyl)-1-oxo-2,7-diazaspiro[4.4]nonan-2-yl)-N-((6^3S,4S)-1^1-ethyl-1^2-(2-((S)-1-methoxyethyl)pyridin-3-yl)-10,10-dimethyl-5,7-dioxo-6^1,6^2,6^3,6^4,6^5,6^6-hexahydro-1^1H-8-oxa-1(5,3)-indola-6(1,3)-pyridazina-2(1,3)-benzenacycloundecaphane-4-yl)-3-methylbutanamide] | < 10 nM |
| C=CC(=O)N1CC[C@H]2[C@@H]1CN2C(=O)N(C)[C@H](C(=O)N[C@H]1Cc2nc(cs2)-c2ccc3c(c2)c(c(-c2cccnc2[C@H](C)OC)n3CC)CC(C)(C)COC(=O)[C@@H]2CCCN(N2)C1=O)C(C)C (atropisomer, axis not shown) [Example A547] | 100 to 1000 nM |
| CCn1c(-c2cccnc2[C@H](C)OC)c2c3cc(ccc31)-c1cccc(c1)C[C@H](NC(=O)[C@H](C(C)C)N1CC[C@]3(CCN(C(=O)C#C[C@@]4(N(C)C)CCOC4)C3)C1=O)C(=O)N1CCC[C@H](N1)C(=O)OCC(C)(C)C2 (atropisomer, axis not shown) [Example A560] | 10 to 100 nM |
| C=CC(=O)N1C[C@@H]2CN(C(=O)N(C)[C@H](C(=O)N[C@H]3Cc4nc(cs4)-c4ccc5c(c4)c(c(-c4cccnc4[C@H](C)OC)n5CC)CC(C)(C)COC(=O)[C@@H]4CCCN(N4)C3=O)C(C)C)[C@@H]2C1 (atropisomer, axis not shown) [Example A561] | 100 to 1000 nM |
| C=CC(=O)N1CCO[C@H]2CN(C(=O)N(C)[C@H](C(=O)N[C@H]3CC4=NN=C(O4)c4ccc5c(c4)c(c(-c4cccnc4[C@H](C)OC)n5CC(F)(F)F)CC(C)(C)COC(=O)[C@@H]4CCCN(N4)C3=O)C(C)C)C[C@H]21 (atropisomer, axis not shown) [Example A576] | 100 to 1000 nM |
| CO[C@@H](C)c1ncccc1-c1c2c3cc(ccc3n1CC(F)(F)F)-c1nc(co1)C[C@H](NC(=O)[C@H](C(C)C)N(C)C(=O)C1(F)CCN(C(=O)C#CC(C)(C)N(C)C)CC1)C(=O)N1CCC[C@H](N1)C(=O)OCC(C)(C)C2 (atropisomer, axis not shown) [Example A578] | < 10 nM |
| CCn1c(-c2cccnc2[C@H](C)OC)c2c3cc(ccc31)-c1cccc(c1)C[C@H](NC(=O)[C@@H](CO[C@H]1CCN(C(=O)C#CC(C)(C)N(C)C)C1)C(C)C)C(=O)N1CCC[C@H](N1)C(=O)OCC(C)(C)C2 (atropisomer, axis not shown) [Example A585] | 10 to 100 nM |
| CCn1c(-c2cccnc2[C@H](C)OC)c2c3cc(ccc31)C1=CCCN(C1)C[C@H](NC(=O)[C@H](C(C)C)N(C)C(=O)C1(F)CCN(C(=O)C#CC(C)(C)N(C)C)CC1)C(=O)N1CCC[C@H](N1)C(=O)OCC(C)(C)C2 (atropisomer, axis not shown) [Example A591] | < 10 nM |
| CCn1c(-c2cccnc2[C@H](C)OC)c2c3cc(ccc31)-c1cccc(c1)C[C@H](NC(=O)[C@@H](COC1CN(C(=O)C#CC(C)(C)N(C)C(C)C)C1)C(C)C)C(=O)N1CCC[C@H](N1)C(=O)OCC(C)(C)C2 (atropisomer, axis not shown) [Example A599] | 10 to 100 nM |
| CO[C@@H](C)c1ncccc1-c1c2c3cc(ccc3n1CC(F)(F)F)-c1cccc(c1)CN(NC(=O)[C@@H](COC1CN(C(=O)C#CC(C)(C)N(C)C)C1)C(C)C)C(=O)N1CCC[C@H](N1)C(=O)OCC(C)(C)C2 (atropisomer, axis not shown) [Example A601] | < 10 nM |
| CO[C@@H](C)c1ncccc1-c1c2c3cc(ccc3n1CC(F)(F)F)-c1csc(n1)C[C@H](NC(=O)[C@H](C(C)C)N(C)C(=O)N1CCC3(CC1)CN(C(=O)/C=C/CF)C3)C(=O)N1CCC[C@H](N1)C(=O)OCC(C)(C)C2 (atropisomer, axis not shown) [Example A602] | 10 to 100 nM |
| C=CC(=O)N1CCOC2(CCN(C(=O)N(C)[C@H](C(=O)N[C@H]3Cc4nc(n(C)n4)-c4ccc5c(c4)c(c(-c4cccnc4[C@H](C)OC)n5CC(F)(F)F)CC(C)(C)COC(=O)[C@@H]4CCCN(N4)C3=O)C(C)C)CC2)C1 (atropisomer, axis not shown) [Example A606] | 100 to 1000 nM |
| C=CC(=O)N1CC2(C1)OCCN2C(=O)N(C)[C@H](C(=O)N[C@H]1Cc2nc(cs2)-c2ccc3c(c2)c(c(-c2cccnc2[C@H](C)OC)n3CC)CC(C)(C)COC(=O)[C@@H]2CCCN(N2)C1=O)C(C)C (atropisomer, axis not shown) [Example A620] | < 10 nM |
| CCn1c(-c2cccnc2[C@H](C)OC)c2c3cc(ccc31)-c1cccc(n1)C[C@H](NC(=O)[C@H](C(C)C)N(C)C(=O)N1CCC13CN(C(=O)C#CC(C)(C)N(C)C)C3)C(=O)N1CCC[C@H](N1)C(=O)OCC(C)(C)C2 (atropisomer, axis not shown) [Example A623] | 100 to 1000 nM |
| CCn1c(-c2cccnc2[C@H](C)OC)c2c3cc(ccc31)-c1csc(n1)C[C@H](NC(=O)C[C@H](C)OC1CN(C(=O)C#CC(C)(C)N(C)C)C1)C(=O)N1CCC[C@H](N1)C(=O)OCC(C)(C)C2 (atropisomer, axis not shown) [Example A637] | 10 to 100 nM |
